From patent US9145375B2, “Quinazolinone compounds” (PRANA BIOTECHNOLOGY LIMITED, priority 2008, dated 2015)
Where “and” joins values, the source holds several entries; their conditions need not be identical. Equal values may be shown once.

Assays:
[1] = system: 6-OHDA lesion of the SNpc; test: Parkinson's disease in vivo: 6-OHDA model; design: species or system mouse; conditions: 6-OHDA lesioned mice, dose not given; for Behaviour (Rotation) % SSV: SSV = 0%
Protocol: Parkinson's Disease In Vivo Technique: 6-OHDA Model
Preparation of the toxin 6-OHDA (1.65 mg/mL, Sigma Cat# H-4381):
6-OHDA toxin is dissolved in ascorbic acid solution (0.2 mg/mL in dH2O), store in dark on ice. To increase the speed of anaesthesia and reduce stress to the mouse, there is premedication with atropine (0.5 mg/kg) and xylazine (10 mg/kg) is injected subcutaneously via a 27 gauge needle).
To Prepare the Lesion Needle to Inject 6-OHDA:
PBS is sucked up into the line (ensure no air bubbles) with up to […] in a Hamilton syringe. Syringe is placed the in the Kd Scientific syringe pump and secured. Pump is turned the on and syringe is loaded into the pump. Pump volume is set at […] and the rate is set at 0.5 ml/min. The lesion needle is positioned so that the bevelled (eye) of the needle is at a 45° angle from the midline and tightened to secure the needle. Pump is run and checked for fluid coming out.
3-4% isoflurane is carried by oxygen to induce anaesthesia and 1-2% for maintenance of anaesthesia. Animal is placed in small induction chamber and subjected to a few minutes of 4% isoflurane in oxygen at a flow rate of approx 1 l/min. Mouse is then placed in stereotaxic frame. The anaesthetic tube is disconnected from induction box and isoflurane reduced to 2% conc and oxygen flow rate to approx […]. Tube is connected to the nose piece attached to stereotaxic frame so that anaesthetic gas can be constantly administered during surgery. LHS ear bar is screwed at approx 3 mm. RHS ear bar is screwed in until there is no sideways head movement (about 5 mm). Front incisors are placed over the mouthguard and put nose-guard on (3 mm below 0). Mouthguard is screwed into place and ensured the top of the mouse's head is level (re-check this once the animal's skull is exposed).
Using a scalpel (size 4, blade 22), the scalp is cut down the centreline of the mouse's head to expose the skull. Typically 10-15 mm. The surface of the skull is dried with a cotton bud. Drill hole is measured with a ruler 3 mm posterior from Bregma and between 1 and 1.5 mm laterally from the centre line. The skull is drilled into this position until the surface of the brain is exposed.
6-OHDA is sucked up to fill approximately 15 cm of the line and the syringe. Fluid is ensured to be coming out of needle. The bevelled of the needle is aligned over the centreline where Bregma crosses, viewed by Motik dissecting microscope. The needle is ensured to be a few mm above the skull before positioning. Frame is moved 2.9 mm in a posterior direction and 1.1 mm (11 small notches) laterally to the right (for RHS injections) from the starting coordinates at Bregma. Needle is moved down until the tip of the needle just touches the surface of the brain.
Needle is lowered to the required depth of 4.6 mm and brain is allowed to settle for 2 min.
[…] of toxin is injected into the RHS SNpc, taking 4 min. 2 min is allowed to ensure the toxin disperses. Needle is withdrawn and antiseptic applied to the wound, with suture or superglue to close.
Mouse is wrapped in a piece of tissue and placed in a warm recovery box (on a heat pad) with water bottles (50 ml tubes) warmed to 50 C. Panadol® syrup is added to mouse's water bottle.
Rotation is recorded by the Computer based Rotacount system—(Columbus Instruments, Columbus, Ohio, USA). The system comprised of 8 bowls with sensors connected to a computer which measures incremental turns (90 degrees and full turns 360 degrees) either clockwise or counter clockwise. The sensors are positioned above the centre of each bowl about 30 cm above each. Tubing and a thin empty plastic pipette are attached so that the sensor is now extended to with a few cm of the base of the bowl.
Mice are placed individually into the eight bowls. Mice are secured to the pipettes via a cable tie and tape. […]

[2] = system: MPTP induced cell death in the SN; test: Parkinson's disease in vivo: MPTP model; design: species or system mouse; conditions: MPTP mice
CYP2E1 = CYP2E1 (Homo sapiens, UniProt P05181); conditions: read-out: Literature IC50 value, CYP2E1; Chlorzoxazone-6-hydroxylation; positive control inhibitor; unit inferred; cited from earlier work
[3] = system: generation of hydrogen peroxide (H2O2) by iron; test: H2O2 Inhibition Assay; format: biochemical
Protocol: Assay 1. H2O2 Inhibition Assay.
(§1) This fluoresence assay evaluates the ability of a test compound to inhibit the generation of hydrogen peroxide (H2O2) by iron in the presence of a reducing substrate such as ascorbic acid. In the assay, iron in the form of FeCl3 or copper is allowed to react with ascorbic acid by incubating for 1 hr at 37° C. in the presence of the fluorescing compound DCF and horseradish peroxidase. H2O2 generated by the system is assessed by measuring the specific fluorescence profile at the excitation and emission wavelengths of 485 and 530 nm respectively, in the presence of increasing concentrations of test compound. Test compounds are ranked according to their capacity to inhibit H2O2 generated by the system where lower values reflect greater ability to inhibit H2O2 production.

Fe-DA = test: H2O2 assay, Fe-DA (% cf. Fe 0.4 μM/DA 50 μM); format: biochemical; conditions: 2 μM Fe
Protocol: as §1

[4] = system: MPTP induced cell death in the SN; test: Parkinson's disease in vivo: MPTP model; design: species or system mouse; conditions: MPTP mice; remark: listed apart in the source
Excerpt: Parkinson's Disease In Vivo Technique: MPTP
MPTP (1-methyl 4-phenyl 1,2,3,6-tetrahydropyridine) is a chemical that is related to the opioid analgesic drugs. MPTP causes Parkinsonian side-effects. This occurs when MPTP is metabolized into MPP+, which kills neurons in a part of the brain called the substantia nigra. MPP+ interferes with mitochondria metabolism which leads to cell death and causes the build up of free radicals, toxic molecules that contribute further to cell destruction. MPTP has abilities to effect neuronal death in dopaminergic cells. Such effects lead to gross depletion of dopaminergic neurons which has severe implications on cortical control of complex movements.
General Experimental Design
Determining that MPTP Causes Continued Cell Death
Control (non tg) and transgenic mice receive five intraperitoneal injections of MPTP-HCl (23 gauge needle, 20 mg\kg of free base; Sigma, St. Louis, Mo., USA) dissolved in sterile 0.9% saline at 2-h interval in 1 day. Control animals receive five intraperitoneal injections of 0.9% saline. […] 20 C57BL6, 10 control and 10 hA53T tg are used to establish the precise dose of toxin at 2 weeks. Animals are allowed to recover for 1 week, 2 weeks, 1 month, 12, months and 18 months. The animals are killed and the brains removed for histological (stereological) and biochemical analysis.
Determining Whether Test Drug Reduces MPTP Induced Cell Death
Animals are treated as described above. They are treated with test drug 2 days after MPTP injection until death. Test drug is given by oral gavage at a daily dosage of 30 mg/kg. The time of killing the animals is dependant on the analysis of Experiment 1, normally one month or less.
Drugs are administered by oral gavage, at a daily dosage of 30 mg/kg.
Mice are assessed at prior to killing the mice for histological analysis.
Motor coordination and strength are assessed using the rotarod. The rotarod consists of a plastic rotating rod of 3.6 cm axial diameter partitioned by metal disks into five sections to allow the testing of multiple mice simultaneously. Mice are trained on two sessions where the rotation speed is ramped from 0-30 rpm over 5 min and one training session where rotation is a constant 16 rpm for 5 min. Within two days of training, animals are formally assessed on the rotarod rotating at 16 rpm for a maximum of 3 min: the time to fall on this single test is the recorded data point.
The pole is a 700 mm long, 5 mm diameter, wooden rod. The rod is supported at its base and held vertical. The total walking distance for the mice is 550 mm. The time taken for the mouse to descend the pole is measured with a maximum time of 120 s. If a mouse falls, the time is scored as 120 s.

[5] = system: M17 human neuroblastoma cells; test: Metal Uptake Assay (metal transport); format: cell-based; conditions: 10 μM Cu + 10 μM compound, 5 hours
Protocol: Assay 3. Metal Uptake Assay
M17 human neuroblastoma cells are plated out on 6 well plates and left overnight. Enough cells are added to give approximately 70% confluent the following day of the experiment. Test compounds are added to media and mixed with equi-molar amounts of CuCl2 solution. A=10 μM Cu+10 μM MPAC; B=10 μM Cu+10 μM MPAC.
Cells are incubated in 1 ml of media/MPAC/Cu mix for 5 hours at 37° C. At the end of the incubation the media is removed with a vacuum aspirator and 1 ml of PBS added to dislodge the cells. Cells are then put into Eppendorf tubes and pelleted. The PBS is removed and the remaining cell pellets are frozen at −20 C.
The cell pellets are prepared as follows:
Received cell pellets of similar levels in 1.5 ml microfuge tubes. Added 50 μl of concentrated Nitric Acid (Aristar, BDH) to each cell pellet and allowed them to digest over night. Heated the samples for 20 min at 90° C. to complete the digestion. The volume of each sample was reduced to ˜45 ul after digestion. Added 1 ml of the 1% Nitric Acid diluent to each sample. (referred to as the “preparation solution” samples).
Measurements were made using a Varian UltraMass ICPMS instrument under operating conditions suitable for routine multi-element analysis.
The instrument was calibrated using Blank, 10, 50 and 100 ppb of a certified multi-element ICPMS standard solution (ICP-MS—CAI2-1, Accustandard) for Fe, Cu and Zn in 1% nitric acid. Used an certified internal standard solution containing 100 ppb Yttrium (Y 89) as an internal control (ICP-MS—IS-MIX1-1, Accustandard).

Mouse Plasma Conc. = format: in vivo; conditions: given as 'Up to'
M17 = test: Cytotox (% viable), cells marked M17; format: cell-based, human; conditions: repeat values given
[6] = test drug 30 mg/kg daily by oral gavage, several experiments

CYP2E1, sequence (P05181 whole entry): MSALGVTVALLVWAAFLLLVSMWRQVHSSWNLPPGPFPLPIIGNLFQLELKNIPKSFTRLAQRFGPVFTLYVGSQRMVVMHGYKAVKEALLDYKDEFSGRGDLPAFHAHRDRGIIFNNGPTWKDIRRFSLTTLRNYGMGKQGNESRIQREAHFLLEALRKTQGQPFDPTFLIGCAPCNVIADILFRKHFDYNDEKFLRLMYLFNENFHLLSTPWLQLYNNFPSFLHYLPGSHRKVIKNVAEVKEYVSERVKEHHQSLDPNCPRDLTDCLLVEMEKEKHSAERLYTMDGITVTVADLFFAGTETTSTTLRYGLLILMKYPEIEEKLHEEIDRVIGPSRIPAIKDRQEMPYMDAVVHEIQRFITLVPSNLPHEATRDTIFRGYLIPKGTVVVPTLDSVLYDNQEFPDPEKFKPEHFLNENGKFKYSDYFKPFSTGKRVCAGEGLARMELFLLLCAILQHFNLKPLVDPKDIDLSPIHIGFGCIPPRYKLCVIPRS

C#CCN(C)[C@H](C)Cc1ccccc1 [Selegiline, reference compound]
Behaviour (Rotation) % SSV [1]: 71.13% | Behaviour (Rotation) total turns/h ± SD [1]: (74.80 ± 57.95) turns/h | SN cell counts % of SSV (SSV = 0%) [1]: 0.43% | SN cell counts (cells ± SD) [1]: (1928.89 ± 301.77) cells | Behaviour Pole Test, % (SSV = 0%) ([2]; Selegiline 1 mg/kg): −198.93% | Behaviour Pole Test, value ± SD ([2]; Selegiline 1 mg/kg): (8.73 ± 7.95) | SN cell counts % of SSV ([2]; Selegiline 1 mg/kg): 39.2% | SN cell counts (cells +/− SD) ([2]; Selegiline 1 mg/kg): (2754.62 ± 461.23) cells

N[C@@H]1C[C@H]1c1ccccc1 (racemic) [Tranylcypromine]
IC50 (CYP2E1): 8.94 µM

O=c1c2c(Cl)cc(Cl)c(O)c2nc(CN2CCCCC2)n1CC1CC1 [Compound F4391]
IC50 [3]: 0.59 µM | Fe-DA % cf. Fe/DA (Fe-DA): 97% | Behaviour Pole Test, % (SSV = 0%) ([4]; 30 mg/kg): 9.96% | Behaviour Pole Test, value ± SD ([4]; 30 mg/kg): (2.63 ± 1.10) | SN cell counts % of SSV [4, 6]: 25.18% | SN cell counts (cells +/− SD) [4, 6]: (2719.11 ± 255.12) cells | Metal transport [5]: Metal transport 34% | Mouse Plasma Conc. (Mouse Plasma Conc.): ≤ 17255.9 ng/mL | Cytotox (% viable at 1 uM) (M17; 1 uM): 87.4% and 95.9% and 96.0% | Cytotox (% viable at 10 uM) (M17; 10 uM): 57.5% and 70.5% and 66.5%

N[C@@H](Cc1ccc(O)c(O)c1)C(=O)O [L-DOPA, L-3,4-dihydroxyphenylalanine]
Behaviour (Rotation) % SSV [1]: 52.26% | Behaviour (Rotation) total turns/h ± SD [1]: (123.67 ± 80.90) turns/h | SN cell counts % of SSV (SSV = 0%) [1]: 1.73% | SN cell counts (cells ± SD) [1]: (1953.78 ± 280.21) cells | Behaviour Pole Test, % (SSV = 0%) ([2]; L-DOPA 20 mg/kg): −205.29% | Behaviour Pole Test, value ± SD ([2]; L-DOPA 20 mg/kg): (8.91 ± 5.25) | SN cell counts % of SSV ([2]; L-DOPA 20 mg/kg): 10.39% and 4.50% | SN cell counts (cells +/− SD) ([2]; L-DOPA 20 mg/kg): 1935 ± 296 cells and 2015.91 ± 729.87 cells
